Results filed as inconclusive are left out.

This note sets out measurements from PubChem BioAssay AID1117319 (Southern Research Institute, 2015).

For this test, the target named is Virion infectivity factor (Human immunodeficiency virus type 1 group M subtype B (isolate BH10)) + Virion infectivity factor (Human immunodeficiency virus type 1 group M subtype B (isolate BRU/LAI)) + Virion infectivity factor (Human immunodeficiency virus type 1 group M subtype B (isolate PCV12)) + Virion infectivity factor (Human immunodeficiency virus type 1 group M subtype B (isolate HXB2)) + DNA dC->dU-editing enzyme APOBEC-3G (Homo sapiens) (UniProt P69720+P69721+P69722+P69723+Q9HC16). As to the kind of experiment: inhibitors of Vif binding to APOBEC3G peptide, primary screen, biochemical, TR-FRET, GST-Vif 1-94, biotin-A3G peptide, dose response retest (AID 1117319).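 Note: Vif residues 1-94 fused to GST binding biotinylated APOBEC3G peptide 110-148.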
As to `CCOC(=O)NC1(NC2CCCCC2)Oc2ccccc2O1`, the concentration for half-maximal inhibition (IC50) (usually the point on the concentration scale where inhibition reaches its midpoint) was 7.31 µM.

As to `Cc1ccc(/C=c2\sc3nc(-c4cccs4)nn3c2=O)o1`, the IC50 was 13.2 µM.

As for `COc1cc(-c2nnc(SCc3cc(=O)oc4cc(O)c(O)cc34)o2)cc(OC)c1OC`, the IC50 was 8.36 µM.

Turning to `O=C(Nc1nc(-c2ccco2)c(-c2ccco2)s1)c1ccco1`, the IC50 was 32.2 µM.

For `O=C(Nc1ccc2nc(-c3ccco3)c(-c3ccco3)nc2c1)N1CCCCCC1`, the half-maximal inhibitory concentration (IC50) was 0.58 µM.

With `COc1cccc(C2NC(=O)NC(O)(C(F)(F)F)C2C(=O)c2cccnc2)c1OC` (stereo unspecified), the half-inhibitory concentration (IC50) was 47.1 µM.

`CCOc1cccc(=O)c2c(C)n(-c3ccc(C(=O)O)cc3)c(C)c12`: the IC50 was 4.49 µM.

As for `C=C(C)C(=O)Nc1cccc(C2=NOC3(C2)C[C@H](C(N)=O)N(C(=O)COc2ccc(Cl)cc2)C3)c1` (stereo partly specified), the IC50 was 1.28 µM.

For the molecule `O=c1cc(-c2ccc(O)cc2)oc2c(O)c(O)c(O)c(O)c12`, the IC50 was 22.1 µM.

As for `CC(C)Nc1ccc(Nc2ccccc2)cc1`, the IC50 is 9.18 µM.

Consider `O=c1cc(-c2ccccc2Cl)c2c([nH]1)CCC2`, for which the IC50 was 4.31 µM.

As for `O=C(NCCc1c[nH]c2ccccc12)c1ccc(S(=O)(=O)NCc2ccco2)cc1`, the half-inhibitory concentration (IC50) was 33.3 µM.

For the molecule `Cc1nc2c(=O)[nH]c(=S)[nH]c2[nH]c1=O`, the IC50 is 50.7 µM.

For the molecule `O=C1CC(/C=C/c2ccco2)=Nc2ccccc2N1`, the IC50 is 1.69 µM.

Consider `O=C(/C=C/c1ccco1)NC(=S)Nc1ccc(C(=O)O)cc1`, for which the IC50 is 16.1 µM.

Take `O=C(O)C1Nc2c(O)cc(Cl)c([N+](=O)[O-])c2C2C=CCC12` (stereo unspecified): the IC50 is 0.23 µM.

For `Oc1cccc(/C=N/NC(=S)NCCN2CCOCC2)c1O`, the half-inhibitory concentration (IC50) was 12.4 µM.

Regarding `O=c1cc2oc3cc(O)c(O)cc3c(-c3ccccc3O)c-2cc1O`, the IC50 was 0.84 µM.

On to `COc1ccc(-n2c(C)cc(C(=O)CSc3nn4c(=O)c(C(C)(C)C)nnc4s3)c2C)cc1`, for which the half-inhibitory concentration (IC50) is 10.3 µM.

On to `O=C1c2c(O)ccc(O)c2C(=O)c2c(NCCNCCO)ccc(NCCNCCO)c21`, for which the IC50 is 7.96 µM.

As to `CCc1c(C)sc(NC(=O)OC)c1C(=O)N1CCCCC1`, the IC50 is 42.7 µM.

Regarding `CN(C(=O)COC(=O)c1cc(-c2ccco2)nc2ccccc12)C1CCS(=O)(=O)C1` (stereo unspecified), the half-maximal inhibitory concentration (IC50) was 1.44 µM.

`Cc1cccc(N(C(=O)Cn2nnc3ccccc32)C(C(=O)NCc2ccco2)c2ccncc2)c1C` (stereo unspecified): the IC50 was 4.66 µM.

Consider `CSc1ccccc1NC(=O)c1noc2c1CCC2`, for which the IC50 is 18.4 µM.

Consider `C=C(C)C(=O)Nc1cccc(C2=NOC3(C2)C[C@@H](C(N)=O)N(C(=O)/C=C/CC)C3)c1` (stereo partly specified), for which the 50% inhibitory concentration (IC50) was 3.32 µM.

Regarding `NS(=O)(=O)c1ccc(CCNC(=O)CCS(=O)(=O)c2ccc(Br)cc2)cc1`, the 50% inhibitory concentration (IC50) is 25 µM.

For `N#Cc1c(-c2ccco2)cc(-c2ccccc2)[nH]c1=O`, the half-inhibitory concentration (IC50) is 14 µM.

`O=[N+]([O-])c1cc(/C=N\Nc2nccs2)ccc1O`: the IC50 is 1.62 µM.

`CC(N=Cc1cccc(O)c1O)c1ccccc1` (stereo unspecified): the IC50 is 2.61 µM.

For the molecule `CC1CCC/C(=C\Nc2ccc(O)cc2)C1=O` (stereo unspecified), the half-inhibitory concentration (IC50) was 17.2 µM.

As to `O=[N+]([O-])c1ccc(Cl)c(S(=O)(=O)Nc2cccc(S(=O)(=O)NC3=NCCC3)c2)c1`, the IC50 is 5.64 µM.

`O=C1NC(=O)N(Cc2ccccc2)C(=O)/C1=C\C=C\c1ccco1`: the IC50 was 4 µM.

Consider `Oc1cc2c(cc1O)C1c3ccc(O)c(O)c3OCC1(O)C2` (stereo unspecified), for which the concentration for half-maximal inhibition (IC50) was 0.46 µM.

On to `COc1ccc(C2CC(=O)N3CN(c4ccc(C)c(Cl)c4)CSC3=C2C#N)cc1` (stereo unspecified), for which the half-maximal inhibitory concentration (IC50) was 81.2 µM.

Consider `COc1cccc(-c2nn3c(-c4ccccn4)nnc3s2)c1`, for which the concentration for half-maximal inhibition (IC50) was 81.3 µM.

Consider `FC(F)(F)C1=Nc2cccc3cccc(c23)N1`, for which the 50% inhibitory concentration (IC50) is 5.95 µM.

As to `Cc1cccc(C)c1NC(=O)COC(=O)c1cc(-c2cccnc2)nc2ccccc12`, the half-maximal inhibitory concentration (IC50) was 41.4 µM.

With `Cn1c(=O)c2c(ncn2CC(=O)N/N=C/C=C/c2ccco2)n(C)c1=O`, the concentration for half-maximal inhibition (IC50) is 6.39 µM.

In the case of `O=C1NC(=O)C(=Cc2ccco2)C(=O)N1`, the IC50 was 19.9 µM.

Consider `O=C(NC1=CC(=O)c2ccccc2C1=O)c1ccccc1`, for which the IC50 is 20.7 µM.

In the case of `O=C1C2C3CCCC3=C3CCCC3C2C(=O)N1c1ccccc1` (stereo unspecified), the IC50 is 3.44 µM.

In the case of `CC1(C)CC(Nc2ccc(Nc3ccccc3)cc2)CC(C)(C)N1`, the half-maximal inhibitory concentration (IC50) was 7.13 µM.

`Cc1cc2c(=Cc3ccc(N(C)C)cc3)c3ccccc3n2[n+]1C`: the half-maximal inhibitory concentration (IC50) is 16.9 µM.

Consider `CC(=O)c1ccc2c(c1)C1C=CCC1C(c1ccncc1)N2` (stereo unspecified), for which the 50% inhibitory concentration (IC50) is 3.16 µM.

With `O=S(=O)(O)c1cc(Cl)cc(N=Nc2ccc(O)cc2O)c1O`, the half-maximal inhibitory concentration (IC50) is 49.4 µM.

As for `CCOC(=O)/C=C1\SCC(=O)N1CC(=O)NC(C)c1ccc(F)cc1` (stereo unspecified), the IC50 is 28.8 µM.

On to `N/C(=N\N=C/c1ccc(-c2ccc(O)c(C(=O)O)c2)o1)N[N+](=O)[O-]`, for which the IC50 is 15.2 µM.

As for `CS(=O)(=O)c1ccc2c(c1)SC1=NC(=O)/C(=C/c3ccco3)C(=N)N12`, the half-inhibitory concentration (IC50) is 6.32 µM.

As for `CC(=O)C1=C(C)NC(C)=C(C(C)=O)C1c1cccs1`, the concentration for half-maximal inhibition (IC50) was 23.5 µM.

In the case of `Cc1ccc(/C=C/C(=O)Nc2ccc([N+](=O)[O-])c(NC(=O)/C=C/c3ccc(C)o3)c2)o1`, the 50% inhibitory concentration (IC50) is 1.49 µM.

Turning to `COC(=O)COc1ccc(S(=O)(=O)Nc2cc(OC)ccc2OC)cc1`, the IC50 was 5.05 µM.

For `CC(C)c1ccc(/C=C/C(=O)N2CCc3ccccc3C2)cc1`, the IC50 was 17.9 µM.

In the case of `O=C(CCc1ccc(S(=O)(=O)NCCc2ccccc2)cc1)Nc1ccc2c(c1)OCO2`, the half-maximal inhibitory concentration (IC50) is 43.5 µM.

For `Cc1ccc(C)n1Cc1ccc(C(=O)O)cc1`, the half-inhibitory concentration (IC50) was 1.55 µM.

For the molecule `CC(=O)OC1COC(n2ccc3ccccc32)C(OC(C)=O)C1OC(C)=O` (stereo unspecified), the IC50 is 22.6 µM.

For `COc1ccc2nc3ccccc3nc2c1N`, the IC50 was 6 µM.

Turning to `O=C(N/N=C/C=C/c1ccco1)c1ccncc1`, the IC50 was 2.36 µM.

`CCCCn1c(=NC(=O)c2cccnc2)c(C#N)cc2c(=O)n3cccc(C)c3nc21`: the half-inhibitory concentration (IC50) is 55.9 µM.

On to `CCc1ccccc1N(CC(=O)NCCSCc1ccco1)S(C)(=O)=O`, for which the IC50 was 78.4 µM.

For the molecule `CC1OC(OCC2OC(Oc3c(-c4ccc(O)cc4)oc4cc(O)cc(O)c4c3=O)C(O)C(O)C2O)C(O)C(O)C1O` (stereo unspecified), the IC50 was 11.8 µM.

Take `O=[N+]([O-])c1ccc2c([N+](=O)[O-])ccc3c2c1CC3`: the IC50 was 12.2 µM.

For the molecule `c1coc(-c2nc3ccccc3nc2-c2ccco2)c1`, the half-maximal inhibitory concentration (IC50) is 1.39 µM.

`CN=c1scc(-c2ccco2)n1/N=C/c1ccc(O)c(O)c1`: the IC50 is 9.26 µM.

`COc1ccc2c(c1)c(=O)oc1cc(OCC(=O)N3CCC(C)CC3)ccc12`: the IC50 was 54.6 µM.

With `COc1ccc(-c2cc(C(=O)N/N=C/c3ccc(OC)c(COCC(F)(F)C(F)F)c3)c3ccccc3n2)c(OC)c1`, the IC50 is 26.2 µM.

On to `O=C(COC(=O)c1ccccc1)Nc1ncc([N+](=O)[O-])s1`, for which the IC50 was 6.6 µM.

Regarding `CCCC(=Nc1ccc(N)cc1)C1=C(O)C(C(=O)OC)C(C)(C)CC1=O` (stereo unspecified), the concentration for half-maximal inhibition (IC50) is 2.76 µM.

Regarding `CC(=O)Nc1cccc(Oc2ncnc3scc(-c4ccccc4)c23)c1`, the IC50 was 16.8 µM.

With `N#CC1=C(N)OC2=C(CCC/C2=C/c2ccoc2)C1c1ccoc1` (stereo unspecified), the IC50 is 2.64 µM.

On to `CCN(CC)c1ccc(N=Cc2c(O)n(-c3ccc(Cl)cc3)c(=O)[nH]c2=O)cc1`, for which the IC50 is 37.6 µM.

`CCc1ccc(NC(=O)CCNS(=O)(=O)c2cccc3nonc23)cc1`: the half-inhibitory concentration (IC50) was 53 µM.

Regarding `CC(=O)N(\C=C/C=C/C=C1\Sc2ccccc2C1=O)c1ccccc1`, the IC50 is 5.47 µM.

Consider `Cc1ccc(C)c(NC(=O)CN(C)C(=O)c2cccc(-n3cccc3)c2)c1`, for which the IC50 is 15.4 µM.

For the molecule `O=C(O)CCCNc1cc(N2CCC3(CC2)OCCO3)c2noc3c2c1C(=O)c1ccccc1-3`, the IC50 was 0.97 µM.

As to `FC(F)(F)c1cc(-c2ccco2)nc(NCc2cccnc2)n1`, the IC50 was 42.3 µM.

On to `O=c1oc2c3c4c(cc2s1)CCCN4CCC3`, for which the IC50 is 9.54 µM.

As for `Cn1cccc1/C=C1\C(=O)NC(=O)N(Cc2ccco2)C1=O`, the IC50 is 9.46 µM.

Turning to `Cc1ccc(C)n1/N=C1/NC(=O)CS1`, the 50% inhibitory concentration (IC50) is 0.9 µM.

As to `c1ccc2c(c1)NCC1CCCN21` (stereo unspecified), the IC50 is 38.1 µM.

For `N#CC1=C(Nc2ccccc2)SC=C(c2ccc(Br)cc2)N=C1N1CCOCC1`, the 50% inhibitory concentration (IC50) was 97.1 µM.

For the molecule `CC[C@H](C)/C=C(C)/C=C/C1=CC2=CC(=O)[C@]3(C)OC(=O)[C@@H](C(C)=O)[C@@H]3C2=CO1`, the IC50 was 13 µM.

For `O=C1CC(SC(=S)C2CCCC2=O)C(=O)N1` (stereo unspecified), the IC50 is 27.8 µM.

Regarding `COC/C=C/C1=CC2=CC(=O)C(C)(OC(=O)C3CCCC3)C(=O)C2=CO1` (stereo unspecified), the concentration for half-maximal inhibition (IC50) was 2.75 µM.

Consider `O=C(CN1CCN(S(=O)(=O)c2ccc(Cl)s2)CC1)NCc1ccc(Cl)cc1`, for which the concentration for half-maximal inhibition (IC50) is 7.67 µM.

In the case of `N#Cc1ccccc1CN1C(=O)S/C(=C/c2cccn2-c2ccc(C(=O)O)cc2)C1=O`, the IC50 was 19.8 µM.

For the molecule `O=S(=O)(O)c1cc(O)c2c(O)c(N=Nc3cc(Cl)ccc3O)c(S(=O)(=O)O)cc2c1`, the IC50 is 78.5 µM.

On to `Cc1cc(C(=O)CCl)c(C)n1-c1c(C)n(C)n(-c2ccccc2)c1=O`, for which the IC50 was 42.8 µM.

With `CC1=C(C(=O)Nc2ccccc2)C(c2ccc(C)o2)n2c(s/c(=C\c3ccco3)c2=O)=N1` (stereo unspecified), the 50% inhibitory concentration (IC50) was 5.34 µM.

`Cc1ccc(SCCN2C(=O)NC(C)(C)C2=O)cc1`: the IC50 was 7.32 µM.

Turning to `O=C(O)Cc1cccc(=O)c(O)c1C(=O)O`, the half-maximal inhibitory concentration (IC50) is 8.19 µM.

For `O=C(c1ccc2nc(-c3ccco3)c(-c3ccco3)nc2c1)N1CCC2(CC1)OCCO2`, the IC50 is 0.35 µM.

For the molecule `CCn1c(C)nc2cc(C(=O)N/N=C/c3ccc(O)c(O)c3O)ccc21`, the IC50 is 0.52 µM.

For the molecule `C=CCn1c(N2CCCCCC2)nc2c1c(=O)[nH]c(=O)n2C`, the IC50 was 30.1 µM.

On to `O=C1NC(=O)C(=CN2CCc3ccccc32)C(=O)N1`, for which the 50% inhibitory concentration (IC50) is 91.3 µM.

For `CCc1cc2cc(C)cc(C)c2nc1SCC(=O)N1CCN(C(=O)c2ccco2)CC1`, the half-maximal inhibitory concentration (IC50) was 12.6 µM.

With `Cc1cccc(OCCn2cccc2/C=C2/C(=O)NC(=O)N(Cc3ccco3)C2=O)c1`, the IC50 is 4.18 µM.
